Marks after values point to notes of the source that are not given here.
Columns and labels:
[1] = gradient elution of standard mixture and correlation with published data; published CHI values; cited from earlier work
[2] = Chromatographic hydrophobicity index (CHI) by RP-HPLC in buffered methanol; type: physicochemical; conditions: isochratic and gradient elution of standard mixture
[3] = Chromatographic hydrophobicity index (CHI) by RP-HPLC in buffered acetonitrile; type: physicochemical; conditions: isochratic and gradient elution of standard mixture
HepG2 cells [4] = conditions: for cytoprotection on HepG2 cells at 6.25% IC50: compound at 6.25% of its IC50, CCl4 4.5×10^−3 M; for cytoprotection on HepG2 cells at 12.5% IC50: compound at 12.5% of its IC50, CCl4 4.5×10^−3 M; for cytoprotection on HepG2 cells at 20% IC50: compound at 20% of its IC50, CCl4 4.5×10^−3 M; for cytoprotection on HepG2 cells at 50% IC50: compound at 50% of its IC50, CCl4 4.5×10^−3 M
From the text: The activity of two toxins was studied first on HepG2 cells—bromobenzene (BB) and CCl4. Cells were challenged with the toxins at different concentration levels.
Experimental conditions were standardized on silybin. Cells were challenged with CCl4 (4.5×10^−3M) in presence of silybin at various concentrations.
The ratio of IC50-to-EC50 (hereafter T/A) is also indicated in this table, which gives the margin between toxic and cytoprotective concentrations.

[5] = DPPH Stable Free Radical Scavenging Assay; conditions: for DPPH activity at 50 μM: up to 30 minutes incubation
Description: Cucurbitacin antioxidant activity was studied first by the DPPH® Stable Free Radical Scavenging Assay (Cotelle et al., Free radical Biology & Medicine 20(1): 35-43, 1996). Experimental conditions were optimized on the standard compound ascorbic acid. Data indicated 30% activity at 50 μM concentration, and 100% activity at 100 μM for ascorbic acid. While the original assay required 10 minutes incubation time for the reaction to occur, this time was increased up to 30 minutes in case cucurbitacin were reacting slower than other reagents.

[6] = ABTS Radical Cation Decolorization Assay; conditions: 50 μM, 100 μM, and 1.8 mM; up to 2 hours
Description: Cucurbitacin B activity was monitored at 50 μM, 100 μM, and 1.8 mM. The time interval was expanded up to 2 hours in case cucurbitacin B was reacting slowly.

HepG2 cells [7] = type: cell-based, human; conditions: HepG2, toxin at 4.5×10^−3 M
Description: The activity of two toxins was studied first on HepG2 cells—bromobenzene (BB) and CCl4. Cells were challenged with the toxins at different concentration levels. Precipitate formation was observed when BB was diluted with media prior to addition to the cells; therefore, both the precipitate and the supernatant were added separately over cells to study their toxic effect.

HSC-T6 cells [8] = test: Serum-driven HSC-T6 proliferation, Experiment 1 (4 h challenge); type: cell-based, rat; conditions: for Experiment 1 anti-proliferation activity at 100 μM: HSC-T6, measured at 100 μM
Description: The proliferation effect of serum on HSC-T6 cells was optimized and cucurbitacin antiproliferative activity was measured. Serum contains a large number of growth factors, hormones and other nutrients, which help cells to grow and multiply. Several trials were conducted. In experiment 1, cells were challenged with cucurbitacin analogs for 4 h and then cells were grown in drug-free media for two additional days.
We established several experimental conditions such as 4 hours of incubation time with cucurbitacin, and 2 day cell incubation with fresh media after challenging with cucurbitacin (Exp. 1). Other experiments involved addition of cucurbitacin for 24 hours over starved cells (Exp. 2) vs. proliferating cells (Exp. 3), and one day incubation of cells with fresh media after challenge. […] Because of that, the challenge time was increased to 24 hours (Exp. 2 and 3).
We modified this approach. Our assay included a second control (ZC) supplemented with no serum intended to measure cucurbitacin anti-proliferation effect relative to the number of cells generated during challenge instead of the total number of cells present in each well.

HSC-T6 cells [9] = test: Cucurbitacin cytotoxicity on HSC-T6 (Experiment 3); type: cell-based, rat; conditions: 24 h
From the text: Cytotoxicity of all cucurbitacin analogs was additionally measured in experiment 3 (Table 8).

HSC-T6 cells [10] = test: PDGF-driven proliferation of HSC-T6 cells; type: cell-based, rat; conditions: HSC-T6, incubation with PDGF for 2 days; not reproducible
From the text: The proliferation assay described by Zhang et al. (Zhang et al., Acta Pharmacol. Sin. 21: 253-256, 2000), was followed to determine the proliferative effect of PDGF on HSC-T6 cells, and yielded to total cell confluency prior to the addition of PDGF to the cells. Therefore, experimental conditions were changed stepwise to reduce cell confluency. When cell concentration was reduced from the initial 10,000 to 4,000 cells/well, and FBS concentration was reduced from 10 to 2%, cell confluency reached approximately 50% prior to the addition of PDGF. […] Further modifications to the initial assay were done such as increase of period of incubation or increase of PDGF concentration. Cells incubation with PDGF for 2 days indicated some degree of proliferation (0-22%), but it was not reproducible from one trial to the other.
The experimental conditions presented by Yang et al. (Yang et al., World J. Gastroenterol. 9: 2050-2053, 2003) were also examined. It involved 1-day cell starvation in serum-free media followed by 3 h challenge with drug candidates and then 2 days incubation with PDGF in serum-free media. In our study, PDGF was added at various concentration levels to starved cells and incubation period with PDGF was increased to 2-to-3 days. However, we could not achieve a stable and significant level of cell proliferation in the presence of PDGF. […]

CC(=O)c1ccccc1 [Acetophenone (21), acetophenone]
CHIACN^c (standard compounds) [1]: 64.90 | CHIMeOH^b (standard compounds) [2]: 52.47 ± 0.05 | CHIACN^b (standard compounds) [3]: 61.93 ± 0.05

Nc1ccccc1 [Aniline (28), aniline]
CHIMeOH^b (standard compounds) [2]: 29.94 ± 0.05

CC(=O)OC(C)(C)/C=C/C(=O)[C@](C)(O)[C@H]1[C@H](O)C[C@@]2(C)[C@@H]3CC=C4[C@H](C[C@H](O)C(=O)C4(C)C)[C@]3(C)C(=O)C[C@]12C [B, cucurbitacin B]
cytoprotection on HepG2 cells at 6.25% IC50 (HepG2 cells [4]): 12.45 ± 1.11 | cytoprotection on HepG2 cells at 12.5% IC50 (HepG2 cells [4]): 25.25 ± 1.36 | cytoprotection on HepG2 cells at 20% IC50 (HepG2 cells [4]): 34.92 ± 2.76 | cytoprotection on HepG2 cells at 50% IC50 (HepG2 cells [4]): 60.01 ± 0.80 | DPPH activity at 50 μM [5]: did not indicate any activity | ABTS activity [6]: No activity

c1ccc2[nH]cnc2c1 [Benzimidazole (20), benzimidazole]
CHIACN^c (standard compounds) [1]: 30.71 | CHIMeOH^b (standard compounds) [2]: 41.07 ± 0.04 | CHIACN^b (standard compounds) [3]: 43.18 ± 0.12

Brc1ccccc1 [Bromobenzene (29), bromobenzene]
CHIMeOH^b (standard compounds) [2]: 69.43 + 0.07

CCCC(=O)c1ccccc1 [Butyrophenone (24), butyrophenone]
CHIACN^c (standard compounds) [1]: 88.49 | CHIMeOH^b (standard compounds) [2]: 66.79 ± 0.05 | CHIACN^b (standard compounds) [3]: 79.32 ± 0.14

ClC(Cl)(Cl)Cl [CCl4]
cell viability (HepG2 cells [7]): 40%-50%

COc1cc2c(c(OC)c1OC)-c1ccc(OC)c(=O)cc1[C@@H](NC(C)=O)CC2 [Colchicine (26), colchicine]
CHIACN^c (standard compounds) [1]: 41.37 | CHIMeOH^b (standard compounds) [2]: 57.56 + 0.04

CC(=O)OC(C)(C)/C=C/C(=O)[C@](C)(O)[C@H]1[C@H](O)C[C@@]2(C)[C@@H]3CC=C4[C@@H](C=C(O[C@@H]5O[C@H](CO)[C@@H](O)[C@H](O)[C@H]5O)C(=O)C4(C)C)[C@]3(C)C(=O)C[C@]12C [E-Gluc, cucurbitacin E glucoside]
cytoprotection on HepG2 cells at 6.25% IC50 (HepG2 cells [4]): −2.36 ± 1.08 | cytoprotection on HepG2 cells at 12.5% IC50 (HepG2 cells [4]): 17.96 ± 1.14 | cytoprotection on HepG2 cells at 20% IC50 (HepG2 cells [4]): 49.44 ± 0.29 | cytoprotection on HepG2 cells at 50% IC50 (HepG2 cells [4]): 33.92 ± 2.92 | Experiment 1 anti-proliferation activity at 100 μM (HSC-T6 cells [8]): ˜46% ^a

CC(C)(O)/C=C/C(=O)[C@](C)(O)[C@H]1[C@H](O)C[C@@]2(C)[C@@H]3CC=C4[C@@H](C=C(O)C(=O)C4(C)C)[C@]3(C)C(=O)C[C@]12C [I, cucurbitacin I]
cytoprotection on HepG2 cells at 6.25% IC50 (HepG2 cells [4]): 4.55 ± 0.64 | cytoprotection on HepG2 cells at 12.5% IC50 (HepG2 cells [4]): 17.50 ± 1.32 | cytoprotection on HepG2 cells at 20% IC50 (HepG2 cells [4]): 50.09 ± 1.02 | cytoprotection on HepG2 cells at 50% IC50 (HepG2 cells [4]): 54.75 ± 0.29

CC(C)(O)/C=C/C(=O)[C@](C)(O)C1[C@H](O)C[C@@]2(C)C3CC=C4C(C=C(O[C@@H]5O[C@H](CO)[C@@H](O)[C@H](O)[C@H]5O)C(=O)C4(C)C)[C@]3(C)C(=O)C[C@]12C (some centres unmarked) [I-Gluc, cucurbitacin I glucoside]
Experiment 1 anti-proliferation activity at 100 μM (HSC-T6 cells [8]): ˜20% ^a

CC(C)OC1=CC2C(=CCC3C2(C)C(=O)CC2(C)C(C(C)(O)C(=O)C=CC(C)(C)O)C(O)CC32C)C(C)(C)C1=O (centres unmarked) [I-iPr]
cytoprotection on HepG2 cells at 6.25% IC50 (HepG2 cells [4]): −17.10 ± 1.54 | cytoprotection on HepG2 cells at 12.5% IC50 (HepG2 cells [4]): 4.15 ± 0.48 | cytoprotection on HepG2 cells at 20% IC50 (HepG2 cells [4]): 18.69 ± 0.13 | cytoprotection on HepG2 cells at 50% IC50 (HepG2 cells [4]): 41.73 ± 2.06

CCCOC1=CC2C(=CCC3C2(C)C(=O)CC2(C)C(C(C)(O)C(=O)C=CC(C)(C)O)C(O)CC32C)C(C)(C)C1=O (centres unmarked) [I-nPr, cucurbitacin I-nPr]
Experiment 1 anti-proliferation activity at 2-6 μM (HSC-T6 cells [8]; HSC-T6, measured at 2-6 μM): ˜18% ^b

c1ccc2[nH]ccc2c1 [Indole (22), indole]
CHIACN^c (standard compounds) [1]: 69.15 | CHIACN^b (standard compounds) [3]: 67.73 + 0.13

Cn1c(=O)c2nc(-c3ccccc3)[nH]c2n(C)c1=O [Ph-theophylline (27), phenyltheophylline]
CHIACN^c (standard compounds) [1]: 52.04 | CHIMeOH^b (standard compounds) [2]: 61.61 ± 0.04

CCC(=O)c1ccccc1 [Propiophenone (23), propiophenone]
CHIACN^c (standard compounds) [1]: 78.41 | CHIMeOH^b (standard compounds) [2]: 60.41 + 0.04 | CHIACN^b (standard compounds) [3]: 71.72 + 0.15

COc1cc(C2Oc3cc([C@H]4Oc5cc(O)cc(O)c5C(=O)[C@@H]4O)ccc3OC2CO)ccc1O (some centres unmarked) [Silybin, reference compound]
cell growth with silybin alone (HepG2 cells [4]; HepG2, silybin alone, 14 to 200 μM): up to 125% | toxicity of silybin alone on HepG2 cells (HepG2 cells [4]; silybin alone, absence of CCl4, 14 to 200 μM (FIG. 4)): no toxicity | Experiment 1 anti-proliferation activity at 100 μM (HSC-T6 cells [8]): ˜20% ^a | Experiment 3 IC50 (μM, T) (HSC-T6 cells [9]): non

Cn1c(=O)c2[nH]cnc2n(C)c1=O [Theophylline (19), theophylline]
CHIACN^c (standard compounds) [1]: 15.76 | CHIMeOH^b (standard compounds) [2]: 25.76 ± 0.05 | CHIACN^b (standard compounds) [3]: 32.63 ± 0.07

CCCCC(=O)c1ccccc1 [Valerophenone (25), valerophenone]
CHIACN^c (standard compounds) [1]: 97.67 | CHIMeOH^b (standard compounds) [2]: 73.05 + 0.12 | CHIACN^b (standard compounds) [3]: 86.66 ± 0.08

O=C1O[C@H]([C@@H](O)CO)C(O)=C1O [ascorbic acid]
DPPH activity at 50 μM [5]: 30% | DPPH activity at 100 μM ([5]; 100 μM): 100%

PDGF
degree of proliferation (HSC-T6 cells [10]): 0-22%

cucurbitacin E
cytoprotection on HepG2 cells at 6.25% IC50 (HepG2 cells [4]): 12.41 ± 0.78 | cytoprotection on HepG2 cells at 12.5% IC50 (HepG2 cells [4]): 21.72 ± 0.75 | cytoprotection on HepG2 cells at 20% IC50 (HepG2 cells [4]): 49.21 ± 1.73 | cytoprotection on HepG2 cells at 50% IC50 (HepG2 cells [4]): 80.55 ± 6.80

From patent publication US20070099852A1, “CUCURBITACIN COMPOUNDS” (SOUTH DAKOTA STATE UNIVERSITY, priority 2005, published 2007)
